Results reported in patent US4777172A, “Pyrimidylalkylthio benzimidale compounds, pharmaceutical compositions and use” (Smith Kline & French Laboratories Limited, priority 1986, dated 1988).
Structures can show the parent of a compound that is named as a salt.

What was measured:
H^+ -K^+ -ATPase = test: K^+ Stimulated ATPase Activity; assay type: biochemical, pig
Experimental: A. K^+ Stimulated ATPase Activity
The effects of a single high concentration (1 mM) of a compound of structure (I) on H^+ -K^+ -ATPase were determined at pH 6.1 and pH 7.4. Preferred compounds of structure (I) were also tested over a range of concentrations to determine IC50 values at pH 6.1 and 7.4.
(i) Preparation of Lyophilised Gastric Vesicles (H^+ -K^+ -ATPase)
H^+ -K^+ -ATPase was prepared from the lyophilised gastric vesicles of pig fundic mucosa after the method of Saccomani et. al. (Biochem and Biophys. Acta., 465, 311, 1977).
(ii) K^+ Stimulated ATPase Activity
Compounds of structure (I) were pre-incubated with H^+ -K^+ -ATPase preparation 30 μg protein/ml from (i) in 10 mM Pipes/Tris buffer pH 6.1 and pH 7.4.
After 30 minutes at 37° the pre-incubation was diluted 5-fold with assay buffer to start the ATPase reaction. The conditions in the assay are 100 mM Pipes/Tris, 2 mM MgCl2, 10 mM KCl, 5 μg/ml nigericin, 2 mM Na2 ATP, pH 7.0. After an incubation at 37° for 15 minutes the inorganic phosphate released was determined by the method of Yoda & Hokin (Biochem. Biophys. Res. Com. 40, 880, 1970).
The effect of the same concentration of compound of structure (I) (pre-incubated with H^+ -K^+ -ATPase preparation at pH 7.4 as described above) on the recovery of 100 nmole of inorganic phosphate was also determined. […]

[1] = test system: rabbit intact gastric glands (dibutyryl cAMP stimulated); test: Aminopyrine (AP) accumulation in intact gastric glands; assay type: cell-based, New Zealand white rabbits; settings: Oryctolagus cuniculus, 0.5 h; 300 μM dibutyryl cAMP, 30 minutes at 37° C, pH 7.4; amount required to inhibit stimulated aminopyrine accumulation by 50%
Experimental: B. Aminopyrine (AP) accumulation in intact gastric glands
The effect of a single concentration (100 μm) of a compound of structure (I) on dibutyryl cAMP stimulated AP […] in rabbit intact gastric glands was determined. Preferred compounds of structure (I) were tested over a range of concentrations to determine the IC50 value.
(i) Preparation of intact gastric glands.
Intact gastric glands were prepared from New Zealand white rabbits by the method of Berghindh et al. (Acta. Physio. Scand. 96, 150, 1976). Gastric mucosal scrapings were digested at 37° C. for 45-60 min. with Collagenase (100 U, Type 1, Sigma), and glands harvested by coarse filtration and sedimentation.
Test compound was incubated with glands and 300 μM dibutyryl cAMP for 30 minutes at 37° C. Incubating medium contained 132.5 mM NaCl, 5.4 mM KCl, 1.0 mM NaH2 PO4, 5.0 mM Na2 HPO4, 1.2 mM MgSO4, 1.0 mM CaCl2, 11.1 mM glucose, 2.0 mg/ml rabbit albumin, 10 μg/ml phenol red, approximately 0.3 uM[^14 C] […] (110 mCi/mmole), pH 7.4.
After incubation, glands were centrifuged and the supernatant removed. The glands were dried, weighed and dissolved in NaOH. The distribution of radioactivity between the supernatant and glands is then used to calculate the AP ratio after the method of Berglindh et al. (Acta. Physiol. Scand. 97, 401, 1976).
The IC50 value is the amount of compound required to inhibit the stimulated accumulation of aminopyrine by 50%.

[2] = test system: histamine stimulated gastric acid secretion; test: Rat: Lumen perfused stomach (histamine stimulated gastric acid secretion); assay type: in vivo
Excerpt: C. Rat: Lumen perfused stomach (histamine stimulated gastric acid secretion).
Using a modification of the procedure described by Ghosh and Schild (Br. J. Pharmacology, 13, 54, 1958), ED50 values after either intraduodenal (i.d) or intravenous (i.v) administration were obtained as follows: […]

[3] = i.d. (intraduodenal) administration

IC50 [1]	Structure (SMILES)	other results
16000 nM	COc1ccc2[nH]c([S+]([O-])Cc3nccc(N4CCCCC4)n3)nc2c1 (stereo not shown) [Example 3, 5-methoxy-2-(4-piperidino-2-pyrimidinylmethylsulphinyl)-(1H)-benzimidazoleCalcium Salt 2.5H2 O]	inhibition of potassium stimulated H^+ -K^+ ATPase (H^+ -K^+ -ATPase; pre-incubation pH 6.1, 30 minutes at 37°): found to inhibit; inhibition of potassium stimulated H^+ -K^+ ATPase (H^+ -K^+ -ATPase; pre-incubation pH 7.4, 30 minutes at 37°): found to inhibit; ED50 ([2]; iv, i.v. administration): 1.4 µmol/kg
2440 nM	COc1ccc2[nH]c([S+]([O-])Cc3nccc(N4CCCC4)n3)nc2c1 (stereo not shown) [Example 7, 5-methoxy-2-(4-pyrrolidino-2-pyrimidinylmethylsulphinyl)-(1H)-benzimidazole]	–
1200 nM	COc1ccc2[nH]c([S+]([O-])Cc3nccc(N(C)C)n3)nc2c1 (stereo not shown) [Example 9, 5-methoxy-2-(4-dimethylamino-2-pyrimidinylmethylsulphinyl)-(1H)-benzimidazole]	ED50 [2, 3]: 2.4 µmol/kg
6150 nM	COc1ccc2[nH]c([S+]([O-])Cc3ncnc(N4CCCCC4)c3C)nc2c1 (stereo not shown) [Example 11, 5-methoxy-2-(5-methyl-6-piperidino-4-pyrimidinylmethylsulphinyl)-(1H)-benzimidazole]	–
320 nM	COc1ccc2[nH]c([S+]([O-])Cc3ncnc(N4CCCC4)c3C)nc2c1 (stereo not shown) [Example 13, 5-methoxy-2-(5-methyl-6-pyrrolidino-4-pyrimidinylmethylsulphinyl)-(1H)-benzimidazole]	ED50 [2, 3]: 2.8 µmol/kg
5000 nM	COc1ccc2[nH]c([S+]([O-])Cc3ncnc(N4CCOCC4)c3C)nc2c1 (stereo not shown) [Example 15, 5-methoxy-2-(5-methyl-6-morpholino-4-pyrimidinylmethylsulphinyl)-(1H)-benzimidazole]	–
3330 nM	COc1ccc2[nH]c([S+]([O-])Cc3ncnc(N(C)C)c3C)nc2c1 (stereo not shown) [Example 17, 5-methoxy-2-(5-methyl-6-dimethylamino-4-pyrimidinylmethylsulphinyl)-(1H)-benzimidazole]	–
2640 nM	COc1ccc2[nH]c([S+]([O-])Cc3cc(N4CCCCC4)ncn3)nc2c1 (stereo not shown) [Example 19, 5-methoxy-2-(6-piperidino-4-pyrimidinylmethylsulphinyl)-(1H)-benzimidazole]	–
